Measurements from article PMC10569065, “Major distinctions between the two oligopeptide permease systems of Bacillus subtilis with respect to signaling, development and evolutionary divergence” (Microbiology, 2023).
Where no end group is shown, it is not given here.

Legend:
[1] = system: App permease (App-only strain O-;A+, AES7410, expressing RapA); test: Co-culture PspoIIG-3×yfp early sporulation reporter, RapA strain, App-only; format: cell-based, Bacillus subtilis; conditions: maximal peptide concentration, SMM with very low glucose, 3 h
Procedure: (§1) Flow cytometry was performed to quantify gene expression at the single-cell level, using a Beckman-Coulter Gallios flow-cytometer equipped with four lasers (405 nm, 488 nm co-linear with 561 nm, 638 nm). The emission filters used were as follows: BFP – 450/50, YFP – 525/40, mCherry – 620/30. Two methods were used to distinguish between co-cultured cells. Strains coding for rapP where transformed by plasmids carrying either an mCherry or mTag2-BFP genes under a constitutive promoter. For the rest of the strains, the same constructs were integrated into the bacterial genome at the lacA locus. YFP levels were measured relative to a set voltage, which was approximately set such that a value of 1 will be given to autofluorescence of strain PY79 in SMM medium.
(§2) Cells were grown to OD600 <0.1, in SMM medium containing trace elements and glucose, then diluted by a factor of 10^6 or 10^7 into fresh SMM medium and grown for about 16 h in exponential phase. […] At each time point OD600nm was measured using a spectrophotometer and fluorescence was measured using a flow cytometry. […]
(§3) Fig. 5. […] ON cells are determined as the cells that have expressed P spoIIG-3 ×yfp 10-fold higher than background. […] YFP levels were measured for single cells using flow cytometry 3 h after the peptide was added to co-culture of both strains, App and Opp. […]

[2] = system: Opp permease (Opp-only strain O+;A-, AES7413, expressing RapA); test: Co-culture PspoIIG-3×yfp early sporulation reporter, RapA strain, Opp-only; format: cell-based, Bacillus subtilis; conditions: 10 µM peptide, SMM with very low glucose, 3 h, ON = 10-fold higher than background
Procedure: as §1, §2, §3

[3] = target: T1, Opp permease (Opp-only strain O+;A-, expressing RapC, RapF or RapP) (Bacillus subtilis, UniProt P24141); test: Co-culture PsrfA-3×yfp reporter response to added Phr peptide, Opp-only strain; format: cell-based
T1 construct: full deletion mutants of the App (Opp-only; O^+;A^-) and Opp (App-only; O^-;A^+) operons; endogenous in cells; host or cells: Bacillus subtilis 3610 (plasmid-free), Opp-only strains O+;A- (AES7204, AES7202, AES5524, AES7207)
T1 sequence (P24141 21-545): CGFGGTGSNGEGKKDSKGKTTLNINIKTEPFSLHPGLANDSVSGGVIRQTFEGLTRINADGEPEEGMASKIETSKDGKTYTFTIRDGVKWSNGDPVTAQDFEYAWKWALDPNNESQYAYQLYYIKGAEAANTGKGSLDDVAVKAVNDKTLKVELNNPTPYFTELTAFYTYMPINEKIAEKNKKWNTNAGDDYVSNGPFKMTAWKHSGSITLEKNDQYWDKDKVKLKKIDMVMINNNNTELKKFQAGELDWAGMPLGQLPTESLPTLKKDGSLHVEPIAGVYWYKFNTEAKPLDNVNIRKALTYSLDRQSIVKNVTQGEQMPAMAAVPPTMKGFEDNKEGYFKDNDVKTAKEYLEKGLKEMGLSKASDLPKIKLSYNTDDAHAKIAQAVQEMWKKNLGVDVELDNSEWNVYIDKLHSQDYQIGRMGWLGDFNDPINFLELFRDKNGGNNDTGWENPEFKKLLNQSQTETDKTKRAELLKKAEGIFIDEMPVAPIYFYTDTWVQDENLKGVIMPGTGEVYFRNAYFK
Procedure: as §1
(§4) Cells were grown to OD600 <0.1, in SMM medium containing trace elements and glucose, then diluted by a factor of 10^6 or 10^7 into fresh SMM medium and grown for about 16 h in exponential phase. In co-culture gene-expression experiments, each strain was grown from a single colony in SMM to OD600 <0.1 or diluted to 0.1 prior to strain mixing. The two strains were mixed at equal volumes and then diluted by a factor of 10^6 or 10^7 in fresh SMM medium. Samples were taken from cultures at several time-points. At each time point OD600nm was measured using a spectrophotometer and fluorescence was measured using a flow cytometry. […]

[4] = system: App permease (App-only strain O-;A+, expressing RapC, RapF or RapP); test: Co-culture PsrfA-3×yfp reporter response to added Phr peptide, App-only strain; format: cell-based, Bacillus subtilis; conditions: co-culture with Opp-only strain, SMM, 3 h after peptide addition, PhrP increase at concentrations higher than 1 µM
Procedure: as §1, §4

[5] = system: App permease; conditions: previous work; cited from earlier work
Description: App was also as effective as Opp in uptaking the PapR pentapeptide, but not in importing the PhrC/F/P pentapeptides. Previous work has identified several App transported peptides, including the nonapeptide […] [[2, 50]].

[6] = target: T2, Opp permease (Opp-only strain O+;A-, AES7207, expressing PlcR) (Bacillus subtilis, UniProt P24141); test: Co-culture PplcA-3×yfp reporter of PlcR receivers, Opp-only strain; format: cell-based
T2 construct: full deletion mutants of the App (Opp-only; O^+;A^-) and Opp (App-only; O^-;A^+) operons; endogenous in cells; host or cells: Bacillus subtilis 3610 (plasmid-free), Opp-only strains O+;A- (AES7204, AES7202, AES5524, AES7207)
T2 sequence (P24141 21-545): as above
Procedure: as §1
as §4, with “The two strains were mixed at equal volumes and then diluted by a factor of 10^6 or 10^7 in fresh SMM medium. Samples were taken from cultures at several time-points.” left out
(§5) Fig. 8. […] YFP levels were measured for single cells using flow cytometry 3 h after the peptide was added. […] Biological repeats at the same concentrations were measured on different days. […]

[7] = target: T3, App permease, App^3610 allele (App-only strain O-;A+, AES7075, expressing PlcR) (Bacillus subtilis, UniProt P42061); test: Co-culture PplcA-3×yfp reporter of PlcR receivers, App-only strain (App3610); format: cell-based
T3 construct: full deletion mutants of the App (Opp-only; O^+;A^-) and Opp (App-only; O^-;A^+) operons; endogenous in cells; host or cells: Bacillus subtilis 3610 (plasmid-free), App-only strain O-;A+ (AES7075)
T3 sequence (P42061 24-543): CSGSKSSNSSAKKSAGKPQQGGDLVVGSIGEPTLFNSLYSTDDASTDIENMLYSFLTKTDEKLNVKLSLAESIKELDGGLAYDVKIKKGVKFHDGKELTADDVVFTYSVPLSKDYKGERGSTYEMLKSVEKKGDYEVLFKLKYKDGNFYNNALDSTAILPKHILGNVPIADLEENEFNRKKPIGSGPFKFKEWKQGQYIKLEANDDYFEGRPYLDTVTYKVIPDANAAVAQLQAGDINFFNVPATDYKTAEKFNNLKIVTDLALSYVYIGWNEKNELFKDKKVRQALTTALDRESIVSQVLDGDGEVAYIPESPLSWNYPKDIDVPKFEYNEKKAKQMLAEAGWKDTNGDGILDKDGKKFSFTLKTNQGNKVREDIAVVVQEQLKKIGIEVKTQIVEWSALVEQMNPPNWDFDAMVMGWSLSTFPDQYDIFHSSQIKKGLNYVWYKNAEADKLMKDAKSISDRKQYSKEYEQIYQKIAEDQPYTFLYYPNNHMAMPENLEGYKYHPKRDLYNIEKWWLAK
Procedure: as §1
as §4, with “The two strains were mixed at equal volumes and then diluted by a factor of 10^6 or 10^7 in fresh SMM medium. Samples were taken from cultures at several time-points.” left out
as §5

[8] = system: ɸ3T infection of B. subtilis 3610 plasmid-free permease variants; test: Phage ɸ3T infection dynamics (optical density) in presence of arbitrium peptide; format: cell-based, Bacillus subtilis; conditions: ɸ3T m.o.i.=0.1 in LB
Procedure: Overnight culture grown in LB of the appropriate strain was diluted by a factor of 1 : 100 into fresh containing 0.1 mM MnCl2 and 5 mM MgCl2. The strains were then grown at 37 °C with shaking at 220 r.p.m. Upon reaching an of OD600=0.3, the strains infected with free ɸ3T at m.o.i.=0.1 and supplemented with 10 µM of the synthetic peptide SAIRGA. Optical density measurements at a wavelength of 600 nm were performed in a 96-well plate using a plate reader (PerkinElmer VICTOR Nivo 622 Multimode Plate Reader).
We wondered whether App is capable of transporting the signalling molecules of arbitrium, the second RRNPP system found in B. subtilis phages. The B. subtilis phage φ3T utilizes an arbitrium system with the small peptide SAIRGA to control the lysis-lysogeny and induction decisions [[17, 22]]. Increased signal concentration tilts the decision towards lysogeny. To further examine the impact of App and Opp on quorum-sensing-dependent activation of φ3T horizontal transfer, we utilized a plate reader to examine the phage infection dynamics by monitoring its impact on optical density during infection of the different variants in Lysogeny Broth (LB) medium.
Fig. 4. […] Growth curves are represented as the mean optical density (dark colour) and its error (light grey) as a function of time (minutes) taken using a plate-reader. […]

ARNQT [PhrA, synthetic PhrA signalling pentapeptide (ARNQT) of the RapA-PhrA system]
fraction of sporulating cells (ON cells, PspoIIG-3×yfp) [1]: 0.2%
percentage of cells with high YFP levels (ON cells, PspoIIG-3×yfp) [2]: ~ 20%

ERGMT [PhrC]
EC50 [3]: < 10 nM
YFP levels (PsrfA-3×yfp) with increasing peptide concentrations, App-only strains [4]: marginally increased

FGFG [tetrapeptide reported in previous work as transported by App]
transport by App [5]: able to transport

FLEEI [pentapeptide reported in previous work as transported by App]
transport by App [5]: able to transport

LPFEF [penta-PapR]
EC50 [6]: 650 nM
EC50 [7]: 290 nM

QRGMI [PhrF]
EC50 [3]: < 10 nM
YFP levels (PsrfA-3×yfp) with increasing peptide concentrations, App-only strains [4]: marginally increased

SAIRGA [synthetic arbitrium hexapeptide of B. subtilis phage φ3T]
optical density on ɸ3T infection with peptide, App-only (O-;A+) ([8]; AES6372, 10 µM peptide): marked reduction in optical density
lysis on ɸ3T infection with peptide, WT (O+;A+) ([8]; WT DS2569, 10 µM peptide added at OD600=0.3, plate reader OD600): did not lyse
